From the supplement of paper PMC10307832

Assays:
Experiment in all cases: relative viability (nuclei count vs DMSO), 5 days (fraction); higher = more cells survive
[1] = compound: Cc1ccc(C(=O)Nc2cccc(C(F)(F)F)c2)cc1Nc1cncc(C(N)=O)c1 [ALW-II-49-7] + CS(=O)(=O)N1CCN(Cc2cc3nc(-c4cccc5[nH]ncc45)nc(N4CCOCC4)c3s2)CC1 [Pictilisib] (partner 1 µM)
How it was run: (§1)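 Nuclei were stained with Hoechst during a one-step fixation (final 0.05% Triton X-100, 1% formaldehyde, 1 ug/ml Hoechst) carried out 5 days after dosing, then counted on 4× images. The cells, lung cancer lines in 1536-well plates, had been dosed by pin tool the day after seeding with one drug alone or a fixed anchor-drug dose plus five library-drug doses (not always all listed) in √10 steps. Relative viability is the nuclei count in treated wells divided by that in vehicle wells, and each value is the median of duplicate plates.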

[2] = compound: C1CC1C(=O)NC2=NNC3=C2C=CC(=C3)C4=CC(=CC=C4)C(=O)NC5CC5 [XMD13-2] + C[C@]1(O)C[C@@H](c2nc(-c3ccc4ccc(-c5ccccc5)nc4c3)c3c(N)nccn32)C1 [Linsitinib] (partner 1 µM)
How it was run: as §1

[3] = compound: C1CC1C(=O)NC2=NNC3=C2C=CC(=C3)C4=CC(=CC=C4)C(=O)NC5CC5 [XMD13-2] + Nc1nc2[nH]cc(CCc3ccc(C(=O)N[C@@H](CCC(=O)O)C(=O)O)cc3)c2c(=O)[nH]1 [Pemetrexed] (partner 0.2 µM)
How it was run: as §1

[4] = compound: C1CC1C(=O)NC2=NNC3=C2C=CC(=C3)C4=CC(=CC=C4)C(=O)NC5CC5 [XMD13-2] + CC(C)C[C@H](NC(=O)[C@H](Cc1ccccc1)NC(=O)c1cnccn1)B(O)O [Bortezomib] (partner 0.002 µM)
How it was run: as §1

| Cell Line | relative viability ([1]; first compound 0.08 µM) | relative viability ([1]; first compound 0.253 µM) | relative viability ([1]; first compound 0.8 µM) | relative viability ([1]; first compound 2.53 µM) | relative viability ([1]; first compound 8 µM) | relative viability ([2]; first compound 0.05 µM) | relative viability ([2]; first compound 0.1581 µM) | relative viability ([2]; first compound 0.5 µM) | relative viability ([2]; first compound 1.581 µM) | relative viability ([2]; first compound 5 µM) | relative viability ([3]; first compound 0.05 µM) | relative viability ([3]; first compound 0.1581 µM) | relative viability ([3]; first compound 0.5 µM) | relative viability ([3]; first compound 1.581 µM) | relative viability ([3]; first compound 5 µM) | relative viability ([4]; first compound 0.05 µM) | relative viability ([4]; first compound 0.1581 µM) | relative viability ([4]; first compound 0.5 µM) | relative viability ([4]; first compound 1.581 µM) | relative viability ([4]; first compound 5 µM) |
| --- | --- | --- | --- | --- | --- | --- | --- | --- | --- | --- | --- | --- | --- | --- | --- | --- | --- | --- | --- | --- |
| HCC-78 | 0.192 | 0.188 | 0.203 | 0.268 | 0.192 | 0.696 | 0.587 | 0.603 | 0.548 | 0.461 | 0.921 | 0.918 | 0.883 | 0.962 | 0.964 | 0.464 | 0.551 | 0.349 | 0.553 | 0.516 |
| HCC-366 | 0.13 | 0.142 | 0.148 | 0.0944 | 0.217 | 0.809 | 0.54 | 0.749 | 0.647 | 0.736 | 0.147 | 0.175 | 0.164 | 0.172 | 0.187 | 1.24 | 0.988 | 0.969 | 1.04 | 1.04 |
| HCC-827 | 0.988 | 1.03 | 0.887 | 0.815 | 1.03 | 0.873 | 0.9 | 0.874 | 0.9 | 0.863 | 0.264 | 0.27 | 0.211 | 0.272 | 0.261 | 1.05 | 1.02 | 1.04 | 0.957 | 1.04 |
| HOP-62 | 0.68 | 0.97 | 0.857 | 0.621 | 0.491 | 1.03 | 0.971 | 1 | 1.09 | 0.913 | 0.264 | 0.339 | 0.299 | 0.285 | 0.278 | 1.03 | 0.726 | 0.842 | 1.23 | 0.756 |
| IA-LM | 0.334 | 0.281 | 0.388 | 0.209 | 0.288 | 0.627 | 0.56 | 0.582 | 0.683 | 0.713 |  |  |  |  |  | 0.907 | 0.79 | 0.825 | 0.829 | 0.398 |
| LC-2-ad | 0.427 | 1.04 | 0.31 | 0.542 | 0.555 | 0.927 | 0.924 | 0.826 | 0.769 | 0.831 | 0.285 | 0.26 | 0.282 | 0.303 | 0.256 | 1.25 | 1.11 | 1.1 | 1.01 | 1.08 |
| LCLC-97TM1 | 0.213 | 0.119 | 0.269 | 0.159 | 0.195 | 0.206 | 0.157 | 0.187 | 0.176 | 0.178 | 0.178 | 0.155 | 0.166 | 0.185 | 0.159 | 1.02 | 0.686 | 0.881 | 0.236 | 0.469 |
| LK-2 | 0.559 | 0.648 | 0.508 | 0.361 | 0.513 | 0.715 | 0.518 | 0.554 | 0.676 | 0.422 | 0.297 | 0.284 | 0.266 | 0.291 | 0.393 |  |  |  |  |  |
| NCI-H358 | 0.361 | 0.401 | 0.363 | 0.405 | 0.456 | 0.759 | 0.764 | 0.826 | 0.663 | 0.449 | 0.171 | 0.168 | 0.175 | 0.179 | 0.166 |  |  |  |  |  |
| NCI-H522 |  |  |  |  |  |  |  |  |  |  | 1.24 | 1.05 | 1.1 | 1.08 | 0.886 |  |  |  |  |  |
| NCI-H727 | 0.511 | 0.415 | 0.267 | 0.432 | 0.292 | 0.219 | 0.25 | 0.439 | 0.312 | 0.25 |  |  |  |  |  | 0.996 | 0.936 | 0.792 | 0.982 | 1.03 |
| NCI-H1299 | 0.623 | 0.78 | 0.609 | 0.436 | 0.311 | 0.982 | 1.03 | 1.15 | 0.997 | 1.03 |  |  |  |  |  | 1.02 | 1.05 | 1.05 | 1.05 | 1.11 |
| NCI-H1395 | 0.646 | 1.05 | 0.653 | 0.581 | 0.62 | 1.06 | 0.984 | 1 | 1.11 | 1.28 | 0.93 | 0.998 | 0.879 | 0.876 | 0.911 |  |  |  |  |  |
| NCI-H1648 |  |  |  |  |  |  |  |  |  |  | 0.702 |  | 0.726 | 0.705 | 0.719 |  |  |  |  |  |
| NCI-H1650 | 0.583 | 0.5 | 0.581 | 0.618 | 0.6 |  |  |  |  |  | 0.351 | 0.388 | 0.348 | 0.418 | 0.395 | 0.22 | 0.201 | 0.198 | 0.195 | 0.191 |
| NCI-H1703 | 0.239 | 0.241 | 0.212 | 0.203 | 0.205 | 0.637 | 1.23 | 0.805 |  | 0.74 |  |  |  |  |  | 0.47 | 0.597 | 0.407 | 0.228 | 0.195 |
| NCI-H1793 | 0.371 | 0.333 | 0.293 | 0.396 | 0.286 | 0.882 | 0.811 | 0.852 | 0.713 | 0.999 | 1.26 | 0.83 | 0.94 | 0.859 | 0.97 |  |  |  |  |  |
| NCI-H1944 | 0.314 | 0.371 | 0.328 | 0.364 | 0.324 | 1.24 | 1.18 | 1.26 | 1.29 | 1.34 | 0.74 | 0.573 | 0.622 | 0.875 | 0.642 |  |  |  |  |  |
| NCI-H2170 | 0.25 | 0.302 | 0.294 | 0.317 | 0.286 |  |  |  |  |  | 0.284 | 0.294 | 0.323 | 0.267 | 0.285 |  |  |  |  |  |
| NCI-H2342 |  |  |  |  |  |  |  |  |  |  | 0.806 | 0.711 | 0.772 | 0.72 | 0.775 |  |  |  |  |  |
| SK-MES-1 | 0.331 | 0.48 | 0.367 | 0.365 | 0.397 | 1.11 | 1.03 | 1.01 | 1.01 | 1.16 | 1.01 | 0.894 | 0.911 | 0.909 | 0.864 |  |  |  |  |  |
| SW 900 |  |  |  |  |  |  |  |  |  |  | 0.485 | 0.502 | 0.508 | 0.493 | 0.529 |  |  |  |  |  |
